Where a name gives a salt, the structure may show the parent alone.
Assays:
[1] = test system: ENR+CD organoids (ISC to Paneth cell differentiation); assay: Primary screen: CCh-stimulated lysozyme secretion LYZ.S, 2.5-D 384-well ENR+CD organoid differentiation; format: cell-based, mouse; conditions: primary screen
Source text: (§1) High-throughput screening.

[2] = test system: ENR+CD organoids; assay: Primary screen: ATP (CellTiter-Glo 3D, CTG) cell number/viability, 2.5-D 384-well ENR+CD organoids; conditions: primary screen; for Z.CTG: standard z score;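 for all read-outs here: compounds given at plating and again on day 3 over a 6-day differentiation from ENR+CV stem-cell-enriched precursors, ATP measured on day 6, plate median as control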
[3] = test system: ENR+CD organoids (ISC to Paneth cell differentiation); assay: Primary screen: basal (non-stimulated) lysozyme secretion LYZ.NS, 2.5-D 384-well ENR+CD organoid differentiation; format: cell-based, mouse; conditions: primary screen; for Z.LYZ.NS: standard z score
Source text: as §1

[4] = 1st dose row of the treatment (0.08 uM by row order; dose not reprinted)
[5] = 2nd dose row of the treatment (0.40 uM by row order; dose not reprinted)
[6] = 3rd dose row of the treatment (2.00 uM by row order; dose not reprinted)
[7] = 4th dose row of the treatment (10.00 uM by row order; dose not reprinted)
[8] = dose 0.08 uM, FC vs plate median
[9] = dose 0.40 uM, FC vs plate median
[10] = dose 2.00 uM, FC vs plate median
[11] = dose 10.00 uM, FC vs plate median
[12] = dose 0.08 uM, FC relative to plate median
[13] = dose 0.40 uM, FC relative to plate median
[14] = dose 2.00 uM, FC relative to plate median
[15] = dose 10.00 uM, FC relative to plate median

Question: With `CN1CCc2cc3c(cc2[C@H]1[C@@H]1OC(=O)c2c1ccc1c2OCO1)OCO3` [(+)-Bicuculline] as the compound, how does the “SSMD.LYZ.S_Rep (strictly standardized mean difference)” value [1, 4] read?
Answer: 0.545

Question: What about the “Z.LYZ.S (standard z score)” value [1, 4] of the same compound?
Answer: 1.005

Question: And the “SSMD.LYZ.S_Rep (strictly standardized mean difference)” value [1, 5]?
Answer: 0.216

Question: And the “Z.LYZ.S (standard z score)” value [1, 5]?
Answer: 0.221

Question: What about the “SSMD.LYZ.S_Rep (strictly standardized mean difference)” value [1, 6] of the same compound?
Answer: −0.164

Question: And the “Z.LYZ.S (standard z score)” value [1, 6]?
Answer: −0.169

Question: And the “SSMD.LYZ.S_Rep (strictly standardized mean difference)” value [1, 7]?
Answer: 0.264

Question: And the “Z.LYZ.S (standard z score)” value [1, 7]?
Answer: 0.465

Question: What about the Dose.FC.LYZ.S ([1]; dose 0.08 uM) of the same compound?
Answer: 0.155 log2 fold change

Question: What about the Dose.FC.LYZ.S ([1]; dose 0.40 uM) of the same compound?
Answer: 0.034 log2 fold change

Question: And the Dose.FC.LYZ.S ([1]; dose 2.00 uM)?
Answer: −0.026 log2 fold change

Question: What about the Dose.FC.LYZ.S ([1]; dose 10.00 uM) of the same compound?
Answer: 0.072 log2 fold change

Question: And the “SSMD.CTG.Rep (strictly standardized mean difference)” value [2, 4]?
Answer: 0.472

Question: What about the “SSMD.CTG.Rep (strictly standardized mean difference)” value [2, 5] of the same compound?
Answer: −0.078

Question: And the “SSMD.CTG.Rep (strictly standardized mean difference)” value [2, 6]?
Answer: −0.237

Question: And the “SSMD.CTG.Rep (strictly standardized mean difference)” value [2, 7]?
Answer: −0.405

Question: What about the Dose.FC.CTG ([2]; dose 0.08 uM) of the same compound?
Answer: 0.318 log2 fold change

Question: What about the “Z.CTG (standard z score)” value ([2]; dose 0.08 uM) of the same compound?
Answer: 0.760

Question: What about the Dose.FC.CTG ([2]; dose 0.40 uM) of the same compound?
Answer: −0.029 log2 fold change

Question: What about the “Z.CTG (standard z score)” value ([2]; dose 0.40 uM) of the same compound?
Answer: −0.069

Question: What about the Dose.FC.CTG ([2]; dose 2.00 uM) of the same compound?
Answer: −0.166 log2 fold change

Question: What about the “Z.CTG (standard z score)” value ([2]; dose 2.00 uM) of the same compound?
Answer: −0.396

Question: And the Dose.FC.CTG ([2]; dose 10.00 uM)?
Answer: −0.132 log2 fold change

Question: And the “Z.CTG (standard z score)” value ([2]; dose 10.00 uM)?
Answer: −0.315

Question: And the “SSMD.LYZ.NS_Rep (strictly standardized mean difference)” value [3, 4]?
Answer: 0.481

Question: What about the “SSMD.LYZ.NS_Rep (strictly standardized mean difference)” value [3, 5] of the same compound?
Answer: 0.106

Question: What about the “SSMD.LYZ.NS_Rep (strictly standardized mean difference)” value [3, 6] of the same compound?
Answer: 0.276

Question: And the “SSMD.LYZ.NS_Rep (strictly standardized mean difference)” value [3, 7]?
Answer: 0.175

Question: And the Dose.FC.LYZ.NS ([3]; dose 0.08 uM)?
Answer: 0.092 log2 fold change

Question: What about the “Z.LYZ.NS (standard z score)” value ([3]; dose 0.08 uM) of the same compound?
Answer: 0.805

Question: What about the Dose.FC.LYZ.NS ([3]; dose 0.40 uM) of the same compound?
Answer: 0.013 log2 fold change

Question: And the “Z.LYZ.NS (standard z score)” value ([3]; dose 0.40 uM)?
Answer: 0.116

Question: And the Dose.FC.LYZ.NS ([3]; dose 2.00 uM)?
Answer: 0.031 log2 fold change

Question: And the “Z.LYZ.NS (standard z score)” value ([3]; dose 2.00 uM)?
Answer: 0.270

Question: What about the Dose.FC.LYZ.NS ([3]; dose 10.00 uM) of the same compound?
Answer: 0.020 log2 fold change

Question: And the “Z.LYZ.NS (standard z score)” value ([3]; dose 10.00 uM)?
Answer: 0.176

Question: Which results are given for `CCc1c2c(nc3ccc(OC(=O)N4CCC(N5CCCCC5)CC4)cc13)-c1cc3c(c(=O)n1C2)COC(=O)[C@]3(O)CC` [Irinotecan HCl Trihydrate]?
Answer: Dose.FC.LYZ.S (log2 fold change) ([1]; dose 0.08 uM): −0.040; Dose.FC.LYZ.S (log2 fold change) ([1]; dose 0.40 uM): −0.158; Dose.FC.LYZ.S (log2 fold change) ([1]; dose 2.00 uM): −0.293; Dose.FC.LYZ.S (log2 fold change) ([1]; dose 10.00 uM): −0.367; Dose.FC.CTG (log2 fold change) ([2]; dose 0.08 uM): −0.083; Dose.FC.CTG (log2 fold change) ([2]; dose 0.40 uM): −0.205; Dose.FC.CTG (log2 fold change) ([2]; dose 2.00 uM): −0.317; Dose.FC.CTG (log2 fold change) ([2]; dose 10.00 uM): −0.588; Dose.FC.LYZ.NS (log2 fold change) ([3]; dose 0.08 uM): −0.019; Z.LYZ.NS (standard z score) ([3]; dose 0.08 uM): −0.162; Dose.FC.LYZ.NS (log2 fold change) ([3]; dose 0.40 uM): −0.092; Z.LYZ.NS (standard z score) ([3]; dose 0.40 uM): −0.805; Dose.FC.LYZ.NS (log2 fold change) ([3]; dose 2.00 uM): −0.221; Z.LYZ.NS (standard z score) ([3]; dose 2.00 uM): −1.925; Dose.FC.LYZ.NS (log2 fold change) ([3]; dose 10.00 uM): −0.272; Z.LYZ.NS (standard z score) ([3]; dose 10.00 uM): −2.368

Question: For `C[C@](O)(COc1ccc(C#N)cc1)C(=O)Nc1ccc(C#N)c(C(F)(F)F)c1` [MK-2866 (GTx-024)], which Dose.FC.LYZ.S [1, 8] is on record?
Answer: 0.072 log2 fold change

Question: And the Dose.FC.LYZ.S [1, 9]?
Answer: 0.050 log2 fold change

Question: What about the Dose.FC.LYZ.S [1, 10] of the same compound?
Answer: 0.078 log2 fold change

Question: And the Dose.FC.LYZ.S [1, 11]?
Answer: −0.072 log2 fold change

Question: What about the Z.CTG ([2]; dose 0.08 uM) of the same compound?
Answer: 0.003

Question: What about the Z.CTG ([2]; dose 0.40 uM) of the same compound?
Answer: −0.474

Question: And the Z.CTG ([2]; dose 2.00 uM)?
Answer: −0.210

Question: What about the Z.CTG ([2]; dose 10.00 uM) of the same compound?
Answer: −0.877

Question: What about the Dose.FC.CTG [2, 8] of the same compound?
Answer: 0.001 log2 fold change

Question: What about the Dose.FC.CTG [2, 9] of the same compound?
Answer: −0.198 log2 fold change

Question: What about the Dose.FC.CTG [2, 10] of the same compound?
Answer: −0.088 log2 fold change

Question: What about the Dose.FC.CTG [2, 11] of the same compound?
Answer: −0.367 log2 fold change

Question: And the Z.LYZ.NS ([3]; dose 0.08 uM)?
Answer: 0.309

Question: And the Z.LYZ.NS ([3]; dose 0.40 uM)?
Answer: 0.241

Question: What about the Z.LYZ.NS ([3]; dose 2.00 uM) of the same compound?
Answer: 0.310

Question: What about the Z.LYZ.NS ([3]; dose 10.00 uM) of the same compound?
Answer: −0.510

Question: And the Dose.FC.LYZ.NS [3, 8]?
Answer: 0.035 log2 fold change

Question: And the Dose.FC.LYZ.NS [3, 9]?
Answer: 0.028 log2 fold change

Question: And the Dose.FC.LYZ.NS [3, 10]?
Answer: 0.036 log2 fold change

Question: What about the Dose.FC.LYZ.NS [3, 11] of the same compound?
Answer: −0.059 log2 fold change

Question: What does the source list for `O=[N+]([O-])c1ccc2c(c1)S(=O)(=O)C=C2` [Stattic]?
Answer: Dose.FC.LYZ.S [1, 12]: 0.150 log2 fold change; Dose.FC.LYZ.S [1, 13]: 0.033 log2 fold change; Dose.FC.LYZ.S [1, 14]: 0.082 log2 fold change; Dose.FC.LYZ.S [1, 15]: −0.019 log2 fold change; Dose.FC.CTG [2, 12]: −0.080 log2 fold change; Z.CTG ([2]; dose 0.08 uM): −0.191; Dose.FC.CTG [2, 13]: −0.005 log2 fold change; Z.CTG ([2]; dose 0.40 uM): −0.011; Dose.FC.CTG [2, 14]: 0.033 log2 fold change; Z.CTG ([2]; dose 2.00 uM): 0.078; Dose.FC.CTG [2, 15]: −0.025 log2 fold change; Z.CTG ([2]; dose 10.00 uM): −0.060; Dose.FC.LYZ.NS [3, 12]: 0.130 log2 fold change; Z.LYZ.NS ([3]; dose 0.08 uM): 1.131; Dose.FC.LYZ.NS [3, 13]: 0.022 log2 fold change; Z.LYZ.NS ([3]; dose 0.40 uM): 0.189; Dose.FC.LYZ.NS [3, 14]: 0.147 log2 fold change; Z.LYZ.NS ([3]; dose 2.00 uM): 1.276; Dose.FC.LYZ.NS [3, 15]: −0.021 log2 fold change; Z.LYZ.NS ([3]; dose 10.00 uM): −0.186

— patent US20220323406A1, “METHODS AND COMPOSITIONS FOR DIFFERENTIATING STEM CELLS” (Massachusetts Institute of Technology, priority 2019, published 2022)
